Measurements reported in patent publication US11332477B2, “Nitrogen containing heterocycle substituted benzoxazine oxazolidinone compound and preparation method and use thereof” (INSTITUTE OF MATERIA MEDICA, CHINESE ACADEMY OF MEDICAL …, priority 2017, dated 2022).
≈ marks a conversion by molar mass, not a printed value.

What was measured:
[1] = system: Mycobacterium tuberculosis H37Rv; assay: Anti-tuberculosis activity test in vitro (Microplate Alamar Blue Assay, MABA); assay type: cell-based; conditions: M. tuberculosis H37Rv, MABA, 7H9 medium, method says MIC90 was calculated, read-out: MIC
Vero cells = assay: Cytotoxicity test (MTT); assay type: cell-based; conditions: Chlorocebus sabaeus; Vero cells, MTT, 48 hours of incubation, highest concentration 64 μg/mL; read-out: IC50
[2] = system: mitochondrial protein synthesis; assay: Activity of inhibiting mitochondrial protein synthesis; assay type: biochemical; conditions: mitochondrial protein synthesis inhibition, Table 3
Protocol: The experimental steps were carried out according to the literature (Antimicrobial Agents and Chemotherapy, 2006, 50 (6), 2042-2049).

Structure (SMILES) | MIC [1] [µg/mL] | IC50 (Vero cells) [µg/mL] | IC50 [2] [µg/mL] | melting point [°C]
O=C(NC[C@@H]1OC(=O)N2c3cc(F)c(N4CCSCC4)cc3OC[C@@H]12)C1CCC1 [Compound 7, N-(((3S,3aS)-8-Fluoro-1-oxo-7-thiomorpholino-3a,4-dihydro-1H,3H-benzo[b]oxazolo[3,4-d][1,4]oxazin-3-yl)methyl)cyclobutanecarboxamide] | 0.03 (≈ 0.0712 µM) | > 64 | 53.69 (≈ 127 µM) | 176 to 178
COC(=O)NC[C@@H]1OC(=O)N2c3cc(F)c(N4CCSCC4)cc3OC[C@@H]12 [Compound 8, Methyl (((3S,3aS)-8-Fluoro-1-oxo-7-thiomorpholino-3a,4-dihydro-1H,3H-benzo[b]oxazolo[3,4-d][1,4]oxazin-3-yl)methyl)carbamate] | 0.031 (≈ 0.078 µM) | > 64 | >100 | 155 to 156
O=C1O[C@@H](CNc2ccon2)[C@@H]2COc3cc(N4CCSCC4)c(F)cc3N12 [Compound 9, (3S,3aS)-8-Fluoro-3-((isoxazol-3-ylamino)methyl)-7-thiomorpholino-3a,4-dihydro-1H,3H-benzo[b]oxazolo[3,4-d][1,4]oxazin-1-one] | 0.025 (≈ 0.0615 µM) | > 64 | >100 | 148 to 150
O=C(NC[C@@H]1OC(=O)N2c3cc(F)c(N4CCSCC4)cc3OC[C@@H]12)c1ccncc1 [Compound 10, N-(((3S,3aS)-8-Fluoro-1-oxo-7-thiomorpholino-3a,4-dihydro-1H,3H-benzo[b]oxazolo[3,4-d][1,4]oxazin-3-yl)methyl)isonicotinamide] | 0.16 (≈ 0.36 µM) | > 64 | >100 | 135 to 137
O=C(NC[C@@H]1OC(=O)N2c3cc(F)c(N4CCSCC4)cc3OC[C@@H]12)c1cnccn1 [Compound 11, N-(((3S,3aS)-8-Fluoro-1-oxo-7-thiomorpholino-3a,4-dihydro-1H,3H-benzo[b]oxazolo[3,4-d][1,4]oxazin-3-yl)methyl)pyrazine-2-carboxamide] | 0.115 (≈ 0.258 µM) | 40.7 (≈ 91.3 µM) | >100 | 212 to 214
O=C1O[C@@H](Cn2ccnn2)[C@@H]2COc3cc(N4CCSCC4)c(F)cc3N12 [Compound 12, (3S,3aS)-3-((1H-1,2,3-Triazol-1-yl)methyl)-8-fluoro-7-thiomorpholino-3a,4-dihydro-1H,3H-benzo[b]oxazolo[3,4-d][1,4]oxazin-1-one] | 0.227 (≈ 0.58 µM) | > 64 | >100 | 223 to 225
CC(=O)NC[C@@H]1OC(=O)N2c3cc(F)c(N4CC[S+]([O-])CC4)cc3OC[C@@H]12 [Compound 23, N-(((3S,3aS)-8-Fluoro-1-oxo-7-(1-oxidothiomorpholino)-3a,4-dihydro-1H,3H-benzo[b]oxazolo[3,4-d][1,4]oxazin-3-yl)methyl)acetamide] | 0.442 (≈ 1.11 µM) | > 64 | 60.57 (≈ 152 µM) | 214 to 216
O=C(NC[C@H]1OC(=O)N2c3cc(F)c(N4CCSCC4)cc3OC[C@H]12)C1CCC1 [Compound 29, N-(((3R,3aR)-8-Fluoro-1-oxo-7-thiomorpholino-3a,4-dihydro-1H,3H-benzo[b]oxazolo[3,4-d][1,4]oxazin-3-yl)methyl)cyclobutane carboxamide] | 0.219 (≈ 0.52 µM) | > 64 | >100 | 183 to 185
O=C1O[C@H](CNc2ccon2)[C@H]2COc3cc(N4CCSCC4)c(F)cc3N12 [Compound 31, (3R,3aR)-8-Fluoro-3-((isoxazol-3-ylamino)methyl)-7-thiomorpholino-3a,4-dihydro-1H, 3H-benzo[b]oxazolo[3,4-d][1,4]oxazin-1-one] | 0.123 (≈ 0.303 µM) | > 64 | >100 | 149 to 150
